Assay results reported in patent US20030096004A1, “(S,S'),(S,R')-amphetaminil, compositions and uses thereof” (priority 2001, published 2003).

Columns and labels:
[1] = tested on: children with hyperkinetic syndrome; conditions: Pacit et al., 1996; cited from earlier work
normal rats [2] = experiment: Locomotor activity in normal rats (grid line crossings); format: in vivo, rat; conditions: for locomotor activity (overall effect): male Wistar rats, all doses tested; for cumulative locomotor activity: vs vehicle
Description: (§1) Male Wistar rats (n=4 per group) were randomly allocated to each drug treatment group. Drugs were administered such that, with the exception of fusaric acid, each rat in each group received all doses of the drug or vehicle in a semi random manner according to the modified Latin Square in Table 1. Compounds were administered at the doses: 0.1, 1 and 10 mg/kg s.c. in 100% DMS0 (vehicle). Amphetamine was administered at 0.1, 1 and 5 mg/kg s.c. in saline (vehicle). Fusaric acid was administered at 20, 40 and 80 mg/kg s.c. in saline (vehicle). Rats received each dose of fusaric acid (20, 40 and 80 mg/kg), doses given in order, starting with vehicle. A one-week interval was provided between doses.
(§2) At the start of the experiment, rats were placed in standard perspex behaviour boxes with a visible grid on the floor to allow determination of locomotor activity. The animals were allowed to acclimatise to their environment for 1 hour prior to drug/saline administration. Following drug administration animals were returned to the behaviour cages and locomotor activity was assessed for a further 5 hours or until baseline (zero activity for 30 minutes) was achieved, whichever was sooner. Locomotor activity was assessed by videoing the rats throughout the experiment, and counting the number of times a rat crossed a grid line during a period of 5 minutes every 10 minutes. Throughout the experiment animals were scored for stereotyped behaviours for 15 seconds every 10 minutes by a trained observer using the scoring methods described in Table 2.
The mean and standard error for locomotor activity over 10 minutes for each rat at each time point was determined. […] Cumulative activity, during the 300 min was also calculated, and the effect of dose of drug was analyzed by one-way repeated measures ANOVA followed by Dunnett's t-test (GraphPad Prizm). Data was also analysed for significant fit to a sigmoidal-shaped log dose-response curve using non-linear regression analysis (GraphPad Prizm).

normal rats [3] = experiment: Induction of stereotyped behaviour in normal rats (stereotypy scoring); format: in vivo, rat; conditions: for duration of stereotypy: 300 min experiment; for stereotypy (overall effect): male Wistar rats, all doses tested; for stereotypy (overall effect) / onset of stereotypy: s.c.; for onset of stereotypy: 10 mg/kg stated for (S,S′),(S,R′)-amphetaminil; for differences in overall stereotypy between groups: total stereotypy score, 0.1-10 mg/kg s.c. vs vehicle
Description: as §1, §2
The mean and standard error for stereotypy activity for 15 seconds every 10 minutes for each rat at each time point was determined. […] Cumulative activity during the 300 min was also calculated, and the effect of dose of drug was analyzed by Kruskall Wallis one-way ANOVA (GraphPad Prizm). Data was also analysed for significant fit to a sigmoidal-shaped log dose-response curve using non-linear regression analysis (GraphPad Prizm)

Row | SMILES | efficacy in the treatment of ADHD in children [1] | locomotor activity (overall effect) (normal rats [2]; s.c.) | duration of stereotypy (normal rats [3]; 10 mg/kg s.c.) | stereotypy (overall effect) (normal rats [3]) | onset of stereotypy (normal rats [3]) | differences in overall stereotypy between groups (normal rats [3]) | share of the racemate's pharmacological activity, cumulative locomotor activity (FIGS. 3B and 4B) (normal rats [2]; 1 mg/kg) | cumulative locomotor activity (normal rats [2]; 10 mg/kg s.c.) | onset of locomotor activity after administration (normal rats [2]; s.c.) | peak of locomotor activity (normal rats [2]; s.c.) | share of the racemate's pharmacological activity, total stereotypy score (FIGS. 7B and 8B) (normal rats [3]; 1 mg/kg) | peak of stereotypy (normal rats [3]; 10 mg/kg s.c.) | onset of locomotor activity (normal rats [2]; 5 mg/kg s.c.) | time of maximum effect on locomotor activity after administration (normal rats [2]; 5 mg/kg s.c.) | cumulative locomotor activity (normal rats [2]; 5 mg/kg s.c., over the duration of the experiment) | overall stereotypy during the 300 min duration of the experiment (normal rats [3]; 5 mg/kg s.c.)
1 | CC(Cc1ccccc1)NC(C#N)c1ccccc1 (racemic) [Racemic amphetaminil, alpha-[(1-methyl-2-phenylethyl)amino]benzeneacetonitrile] | efficacy | increased locomotor activity only at the highest dose of 10 mg/kg | sustained for the duration of the experiment | increased stereotypy in a log dose-related manner | rapid | did not reach statistical significance | – | – | – | – | – | – | – | – | – | –
2 | C[C@@H](Cc1ccccc1)NC(C#N)c1ccccc1 (stereo partly drawn) [(S,S′),(S,R′)-Amphetaminil, alpha-[(1S-Methyl-2-phenylethyl)amino]benzeneacetonitrile] | – | increased locomotor activity in a dose-related manner | sustained during the 300 min duration of the experiment | increased stereotypy in a log dose-related manner | rapid | did not reach statistical significance | responsible for nearly all of the pharmacological activity of the racemate | significant effect | ≤ 30 min | 60 min | responsible for nearly all of the pharmacological activity of the racemate | 100 min | – | – | – | –
3 | CC(N)Cc1ccccc1 (centres unmarked) [Amphetamine] | – | dose-related increase in locomotor activity | – | log dose-related increase stereotypy | – | – | – | – | – | – | – | – | rapid | 30 min | significantly increased | tended to increase
